The values below come from patent US11384075B2, “Quinolinone compounds” (Janssen Pharmaceutica NV, priority 2017, dated 2022).

The target of test [1] is T1, human FGFR3 wild type enzyme (cytoplasmic domain) (Homo sapiens, UniProt P22607).
T1 construct: human FGFR3 wild type enzyme (cytoplasmic domain, from Carna Biosciences); purchased Carna Biosciences
In words: FGFR3 wild type mobility shift assay (enzymatic assay). The format is biochemical. To be noted: 75 μM ATP, 50 minutes at 30° C., Caliper EZ reader II. As for the experimental part: FGFR3 Wild Type Mobility Shift Assay (Enzymatic Assay)
(§1) In a final reaction volume of 25 μL, 0.04 ng/μL human FGFR3 wild type enzyme (cytoplasmic domain, from Carna Biosciences) was incubated with 75 μM ATP, 1 μM FL-peptide 30 substrate and 250 nL of testing compound (1% DMSO final) in assay buffer (100 mM HEPES pH 7.4, 10 mM MgCl2, 0.003% Brij35, 1 mM DTT). After incubation for 50 minutes at 30° C. the reaction was stopped with 10 μL of 0.5M EDTA pH 8.0, and then 25 μL of reaction mixture was transferred to reading plate and measured on Caliper EZ reader II. The substrate-product conversion rate was used as raw data for normalization and concentration-response curve (10 dose points with 4× serial dilution, starting with 10 μM) was plotted using Prism to calculate IC50 (M), pIC50 (−log IC50) and HillSlope value.

The target of test [2] is T2, NIH/3T3 cells overexpressing FGFR3 WT-TACC3 fusion protein (Homo sapiens, UniProt P22607).
T2 construct: NIH/3T3 FGFR3 WT-TACC3 CTG (IC50); other: 72-hr incubation, CellTiter Glo, starting with 10 μM; fused on or other part: Q9Y6A5 (Transforming acidic coiled-coil-containing protein 3)
T2 sequence (P22607 whole entry, change not shown, the tested form may be a part): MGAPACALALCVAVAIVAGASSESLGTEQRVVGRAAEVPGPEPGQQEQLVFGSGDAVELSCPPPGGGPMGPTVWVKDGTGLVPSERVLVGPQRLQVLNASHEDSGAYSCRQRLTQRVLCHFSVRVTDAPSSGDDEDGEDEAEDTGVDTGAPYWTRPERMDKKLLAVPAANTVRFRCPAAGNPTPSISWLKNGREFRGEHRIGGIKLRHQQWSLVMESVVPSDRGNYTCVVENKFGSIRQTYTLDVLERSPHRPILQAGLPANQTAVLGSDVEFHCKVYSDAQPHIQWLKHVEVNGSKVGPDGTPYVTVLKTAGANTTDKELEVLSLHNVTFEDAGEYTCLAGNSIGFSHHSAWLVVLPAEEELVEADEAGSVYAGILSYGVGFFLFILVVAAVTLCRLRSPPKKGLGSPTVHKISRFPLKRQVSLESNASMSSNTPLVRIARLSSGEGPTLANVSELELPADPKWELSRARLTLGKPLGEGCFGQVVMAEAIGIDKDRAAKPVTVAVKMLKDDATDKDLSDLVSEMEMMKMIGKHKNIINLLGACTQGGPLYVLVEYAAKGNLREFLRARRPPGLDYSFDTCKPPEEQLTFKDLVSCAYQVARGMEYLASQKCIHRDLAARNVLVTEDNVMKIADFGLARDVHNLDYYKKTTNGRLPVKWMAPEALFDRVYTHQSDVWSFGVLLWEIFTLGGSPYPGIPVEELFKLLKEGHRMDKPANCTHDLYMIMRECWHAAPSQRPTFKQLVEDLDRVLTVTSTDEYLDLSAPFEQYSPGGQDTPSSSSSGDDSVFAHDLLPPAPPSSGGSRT
The test is described as follows: NIH/3T3 FGFR3 WT-TACC3 cell proliferation assay. The format is cell-based. To be noted: 72-hr incubation, CellTiter Glo, starting with 10 μM; read-out: NIH/3T3 FGFR3 WT-TACC3 CTG (IC50). As for the experimental part:
NIH/3T3 FGFR3 WT-TACC3 Cell Proliferation Assay
(§2) In day 1, 90 μL of cell suspension (NIH/3T3 cells overexpressing FGFR3 WT-TACC3 fusion protein) (total 30,000 cells per well in growth medium (DMEM containing 1% Glutamax, 10% FBS and 1% Pen/Strep)) was seeded in a 96-well plate and then incubated overnight at 37° C. and 5% CO2. In day 2, 10 μL of growth medium containing 10-fold stock solution of testing compound was added into cell cultures (9 dose points with 4× serial dilution, starting with 10 μM, 0.1% DMSO final). After 72-hr incubation at 37° C. and 5% CO2, in day 5 a volume of 50 μL CellTiter Glo (CTG) reagent was added into cell-containing 96-well plate and the plate was incubated at room temperature for 10 minutes before RLUs (relative light unit) were measured on a microplate reader with luminescence detection module. The RLU value was normalized to survival % and concentration-response curve was plotted using Prism to calculate IC50 (M), pIC50 (−log IC50) and HillSlope value.

Test [3] deals with T3, NIH/3T3 cells overexpressing FGFR3 V555M-TACC3 fusion protein (Homo sapiens, UniProt P22607, V555M, cells depend on it).
T3 construct: NIH/3T3 FGFR3 V555M-TACC3 CTG (IC50); other: 72-hr incubation, CellTiter Glo, starting with 10 μM; fused on or other part: Q9Y6A5 (Transforming acidic coiled-coil-containing protein 3)
T3 sequence (P22607 whole entry V555M, the tested form may be a part): as the sequence (P22607 whole entry, change not shown, the tested form may be a part) above, with V555M counted along it
The test is described as follows: NIH/3T3 FGFR3 V555M-TACC3 cell proliferation assay. To be noted: 72-hr incubation, CellTiter Glo, starting with 10 μM; read-out: NIH/3T3 FGFR3 V555M-TACC3 CTG (IC50). The class given is cell-based. As for the experimental part:
NIH/3T3 FGFR3 V555M-TACC3 Cell Proliferation Assay
as §2, with “V555M-TACC3” for “WT-TACC3”
(In ATP-based viability assays light output follows the ATP content of the culture.)

The subject of test [4] is NIH/3T3 cells transfected with the same control vector. In words: NIH/3T3 mock cell proliferation assay (counter assay, general toxicity). The format is cell-based. To be noted: Mus musculus, NIH3T3, 72 h, 72-hr incubation, CellTiter Glo, starting with 30 μM; counter assay for general toxicity; read-out: NIH/3T3 MOCK CTG (IC50). As for the experimental part: NIH/3T3 Mock Cell Proliferation Assay
as §2, with “cells transfected with the same control vector as in the above two proliferation assays)” for “cells overexpressing FGFR3 WT-TACC3 fusion protein)”, “with 3×” for “with 4×”, “with 30” for “with 10”, “μM, 0.3%” for “μM, 0.1%”

Test [5] has as its target T4, human FGFR3 V555M enzyme (cytoplasmic domain carrying V555M mutation) (Homo sapiens, UniProt P22607, V555M).
T4 construct: human FGFR3 V555M enzyme (cytoplasmic domain carrying V555M mutation, from Carna Biosciences); purchased Carna Biosciences
In words: FGFR3 V555M mobility shift assay (enzymatic assay). The format is biochemical. To be noted: 30 μM ATP, 45 minutes at 30° C., Caliper EZ reader II. As for the experimental part: FGFR3 V555M Mobility Shift Assay (Enzymatic Assay)
as §1, with “FGFR3 V555M” for “FGFR3 wild type”, “(cytoplasmic domain carrying V555M mutation,” for “(cytoplasmic domain,”, “with 30” for “with 75”, “for 45” for “for 50”

T1 sequence (P22607 397-806 limits assumed): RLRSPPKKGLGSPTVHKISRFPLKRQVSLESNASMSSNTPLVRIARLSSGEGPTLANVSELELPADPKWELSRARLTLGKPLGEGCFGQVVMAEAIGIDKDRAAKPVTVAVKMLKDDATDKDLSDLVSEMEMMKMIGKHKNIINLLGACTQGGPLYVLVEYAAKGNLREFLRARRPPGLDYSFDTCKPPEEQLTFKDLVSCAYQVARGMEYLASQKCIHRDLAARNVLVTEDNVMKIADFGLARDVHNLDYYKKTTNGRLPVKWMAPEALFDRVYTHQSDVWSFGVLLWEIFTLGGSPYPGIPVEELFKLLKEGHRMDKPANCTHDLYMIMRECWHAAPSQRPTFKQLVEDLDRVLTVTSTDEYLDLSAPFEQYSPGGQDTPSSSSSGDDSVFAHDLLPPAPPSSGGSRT
T4 sequence (P22607 397-806 V555M limits assumed): as the sequence (P22607 397-806 limits assumed) above, with V159M counted along it

In the case of `CC(Nc1c(-c2nc3ccc(N4C[C@@H](C)O[C@H](C)C4)cc3[nH]2)c(=O)[nH]c2ccccc12)c1ncccn1` (single isomer, unassigned) [Compound 37a, 3-(6-((2R,6R)-2,6-dimethylmorpholino)-1H-benzo[d]imidazol-2-yl)-4-(((S*)-1-(pyrimidin-2-yl)ethyl)amino)quinolin-2(1H)-one], the IC50 in test [1] amounted to 0.478 nM; in test [4] it was 898 nM; in test [5] it was 0.326 nM. The figures for the GI50 in test [2] and in test [3] were 11.7 nM and 4.18 nM, respectively.

As for `CC(Nc1c(-c2nc3ccc(N4C[C@H](C)O[C@@H](C)C4)cc3[nH]2)c(=O)[nH]c2ccccc12)c1ncccn1` (single isomer, unassigned) [Compound 39a, 3-(6-((2S,6S)-2,6-dimethylmorpholino)-1H-benzo[d]imidazol-2-yl)-4-(((S*)-1-(pyrimidin-2-yl)ethyl)amino)quinolin-2(1H)-one], the IC50 in test [1] stood at 0.174 nM; in test [4] it was 1600 nM; in test [5] it was 0.136 nM. Also, the GI50 in test [2] was 6.58 nM; in test [3], 6.47 nM.

Turning to `C[C@@H]1CN(c2ccc3nc(-c4c(N[C@@H](C)c5ncccn5)c5ccccc5[nH]c4=O)[nH]c3c2)CCO1` (single isomer, unassigned) [Compound 40a], the IC50 in test [1] turned out to be 0.313 nM; in test [4], 2480 nM; in test [5], 0.168 nM. In addition, the GI50 was found to be 3.15 nM in test [2] and 1.85 nM in test [3].

In the case of `CC(Nc1c(-c2nc3ccc(N4CCN(CCC(F)(F)F)CC4)cc3[nH]2)c(=O)[nH]c2ccccc12)c1ncccn1` (single isomer, unassigned) [Compound 41a, (S*)-4-((1-(pyrimidin-2-yl)ethyl)amino)-3-(6-(4-(3,3,3-trifluoropropyl)piperazin-1-yl)-1H-benzo[d]imidazol-2-yl)quinolin-2(1H)-one], the IC50 was 0.668 nM in test [1], 6970 nM in test [4] and 0.485 nM in test [5]. In addition, the GI50 in test [2] was found to be 7.08 nM; in test [3], 5.01 nM.

For the compound `CC(Nc1c(-c2nc3ccc(N4CCC(OC(F)(F)F)CC4)cc3[nH]2)c(=O)[nH]c2ccccc12)c1ncccn1` (single isomer, unassigned) [Compound 43a, (S*)-4-((1-(pyrimidin-2-yl)ethyl)amino)-3-(6-(4-(trifluoromethoxy)piperidin-1-yl)-1H-benzo[d]imidazol-2-yl)quinolin-2(1H)-one], the IC50 came out at 1 nM in test [1], 8270 nM in test [4] and 0.643 nM in test [5]. Moreover, the GI50 was found to be 20.3 nM in test [2] and 9.93 nM in test [3].

Turning to `CC(Nc1c(-c2nc3ccc(N4CC5CCC(C4)O5)cc3[nH]2)c(=O)[nH]c2ccccc12)c1ncccn1` (single isomer, unassigned) [Compound 44a, 3-(6-(8-oxa-3-azabicyclo[3.2.1]octan-3-yl)-1H-benzo[d]imidazol-2-yl)-4-(((S*)-1-(pyrimidin-2-yl)ethyl)amino)quinolin-2(1H)-one], the results for the IC50 in test [1], in test [4] and in test [5] were 0.244 nM, 3040 nM and 0.147 nM, respectively. Also, the GI50 in test [2] came to 9.46 nM; in test [3], 3.98 nM.

Turning to `CC(Nc1c(-c2nc3cc(C(F)(F)F)c(N4CCOCC4)cc3[nH]2)c(=O)[nH]c2ccccc12)c1ncccn1` (single isomer, unassigned) [Compound 45, (S*)-3-(6-morpholino-5-(trifluoromethyl)-1H-benzo[d]imidazol-2-yl)-4-((1-(pyrimidin-2-yl)ethyl)amino)quinolin-2(1H)-one], the IC50 came to 1.17 nM in test [1], 12700 nM in test [4] and 0.483 nM in test [5]. In addition, the GI50 in test [2] turned out to be 25.3 nM; in test [3], 12.2 nM.

For `COc1ccnc(C(C)Nc2c(-c3nc4ccc(N5CCOCC5)cc4[nH]3)c(=O)[nH]c3ccccc23)c1` (single isomer, unassigned) [Compound 48a, (S*)-4-((1-(4-methoxypyridin-2-yl)ethyl)amino)-3-(6-morpholino-1H-benzo[d]imidazol-2-yl)quinolin-2(1H)-one], the values for the IC50 in test [1], in test [4] and in test [5] were 19.9 nM, 5670 nM and 5.41 nM, respectively. In addition, the GI50 in test [2] amounted to 454 nM; in test [3], 547 nM.

With `CC(Nc1c(-c2nc3ccc(N4CCOCC4)cc3[nH]2)c(=O)[nH]c2ccccc12)c1cocn1` (single isomer, unassigned) [Compound 51a, (S*)-3-(6-morpholino-1H-benzo[d]imidazol-2-yl)-4-((1-(oxazol-4-yl)ethyl)amino)-quinolin-2(1H)-one], the IC50 stood at 1.31 nM in test [1], 1180 nM in test [4] and 0.237 nM in test [5]. For the same compound, the GI50 in test [2] stood at 30.1 nM; in test [3], 30.2 nM.

Consider `CC(Nc1c(-c2nc3ccc(N4CCOCC4)cc3[nH]2)c(=O)[nH]c2ccccc12)c1cscn1` (single isomer, unassigned) [Compound 52a, (S*)-3-(6-morpholino-1H-benzo[d]imidazol-2-yl)-4-((1-(thiazol-4-yl)ethyl)amino)-quinolin-2(1H)-one], for which the results for the IC50 in test [1], in test [4] and in test [5] were 0.858 nM, 1430 nM and 0.208 nM, respectively. For the same compound, the GI50 came out at 23.1 nM in test [2] and 6.69 nM in test [3].
